Values belong to the compound of their own block, whether it stands above or below them.
Molecular target: human APJ receptor (Homo sapiens (Human), UniProt P35414)
Experiment: [35S]GTPγS binding assay on membranes from CHO cells stably expressing human APJ receptor
Type: biochemical
Conditions: read-out: Activity hAPJ SPA EC50 IP
How it was run: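 Membranes from CHO cells stably expressing human APJ incubated with ligand, 0.2 nM [35S]GTPγS and WGA SPA beads in HEPES pH 7.5 with 5 mM MgCl2, 200 mM NaCl, 3 μM GDP, 90 min at RT. Nonspecific binding defined with 100 μM GTPγS; EC50 by non-linear regression.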

Chain of human APJ receptor (P35414 whole entry): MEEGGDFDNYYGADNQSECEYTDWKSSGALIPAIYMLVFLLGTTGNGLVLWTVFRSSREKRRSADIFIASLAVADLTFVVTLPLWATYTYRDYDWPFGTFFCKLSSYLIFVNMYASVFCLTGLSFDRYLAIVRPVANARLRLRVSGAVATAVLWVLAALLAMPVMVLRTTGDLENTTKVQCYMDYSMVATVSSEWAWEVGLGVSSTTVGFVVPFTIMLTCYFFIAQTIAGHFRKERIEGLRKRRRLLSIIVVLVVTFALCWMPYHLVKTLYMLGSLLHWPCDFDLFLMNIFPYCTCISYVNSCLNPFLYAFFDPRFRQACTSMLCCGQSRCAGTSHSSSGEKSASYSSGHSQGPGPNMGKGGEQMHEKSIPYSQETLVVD

Structure (SMILES): COc1cnc([C@@H](C)[C@H](C)S(=O)(=O)Nc2nnc([C@@H]3COCCO3)n2-c2c(OC)ncnc2OC)nc1 (single isomer, unassigned) [Example 177.0, (2S,3R)-N-(4,-(4,6-dimethoxy-5-pyrimidinyl)-5-((2R)-1,4-dioxan-2-yl)-4H-1,2,4-triazol-3-yl)-3-(5-methoxy-2-pyrimidinyl)-2-butanesulfonamide or (2S,3R)-N-(4-(4,6-dimethoxy-5-pyrimidinyl)-5-((2S)-1,4-dioxan-2-yl)-4H-1,2,4-triazol-3-yl)-3-(5-methoxy-2-pyrimidinyl)-2-butanesulfonamide]
EC50: 95 nM

Structure (SMILES): COc1cnc([C@@H](C)[C@H](C)S(=O)(=O)Nc2nnc([C@@H]3COCCO3)n2-c2c(OC)ncnc2OC)nc1 (single isomer, unassigned) [Example 178.0, (2S,3R)-N-(4-(4,6-dimethoxy-5-pyrimidinyl)-5-((2R)-1,4-dioxan-2-yl)-4H-1,2,4-triazol-3-yl)-3-(5-methoxy-2-pyrimidinyl)-2-butanesulfonamide or (2S,3R)-N-(4-(4,6-dimethoxy-5-pyrimidinyl)-5-((2S)-1,4-dioxan-2-yl)-4H-1,2,4-triazol-3-yl)-3-(5-methoxy-2-pyrimidinyl)-2-butanesulfonamide]
EC50: 290 nM

EC50: 4.1 nM
Structure (SMILES): COc1ncnc(OC)c1-n1c(NS(=O)(=O)[C@@H](C)[C@H](C)c2ncc(Cl)cn2)nnc1[C@@H]1CCCCO1 (single isomer, unassigned) [Example 191.0, (2S,3R)-3-(5-chloropyrimidin-2-yl)-N-(4-(4,6-dimethoxypyrimidin-5-yl)-5-((S)-tetrahydro-2H-pyran-2-yl)-4H-1,2,4-triazol-3-yl)butane-2-sulfonamide or (2S,3R)-3-(5-chloropyrimidin-2-yl)-N-(4-(4,6-dimethoxypyrimidin-5-yl)-5-((R)-tetrahydro-2H-pyran-2-yl)-4H-1,2,4-triazol-3-yl)butane-2-sulofnamide]

EC50: 1 nM
Structure (SMILES): COc1ncnc(OC)c1-n1c(NS(=O)(=O)[C@@H](C)[C@H](C)c2ncc(Cl)cn2)nnc1[C@@H]1CCCCO1 (single isomer, unassigned) [Example 192.0, (2S,3R)-3-(5-chloropyrimidin-2-yl)-N-(4-(4,6-dimethoxypyrimidin-5-yl)-5-((S)-tetrahydro-2H-pyran-2-yl)-4H-1,2,4-triazol-3-yl)butane-2-sulfonamide or (2S,3R)-3-(5-chloropyrimidin-2-yl)-N-(4-(4,6-dimethoxypyrimidin-5-yl)-5-((R)-tetrahydro-2H-pyran-2-yl)-4H-1,2,4-triazol-3-yl)butane-2-sulfonamide]

Structure (SMILES): COc1ncnc(OC)c1-n1c(NS(=O)(=O)[C@@H](C)[C@H](C)c2ncc(Cl)cn2)nnc1[C@@H]1COCCO1 (single isomer, unassigned) [Example 196.0, (2S,3R)-3-(5-chloropyrimidin-2-yl)-N-(4-(4,6-dimethoxypyrimidin-5-yl)-5-((R)-1,4-dioxan-2-yl)-4H-1,2,4-triazol-3-yl)butane-2-sulfonamide or (2S,3R)-3-(5-chloropyrimidin-2-yl)-N-(4-(4,6-dimethoxypyrimidin-5-yl)-5-((S)-1,4-dioxan-2-yl)-4H-1,2,4-triazol-3-yl)butane-2-sulfonamide]
EC50: 130 nM

Structure (SMILES): COc1cccc(OC)c1-n1c(NS(=O)(=O)[C@@H](C)[C@H](C)c2ncc(C)cn2)nnc1[C@H]1CN(S(C)(=O)=O)CCO1 (single isomer, unassigned) [Example 230.0]
EC50: 450 nM

Structure (SMILES): COc1cccc(OC)c1-n1c(NS(=O)(=O)[C@@H](C)[C@H](C)c2ncc(C)cn2)nnc1[C@H]1CN(S(C)(=O)=O)CCO1 (single isomer, unassigned) [Example 231.0]
EC50: 880 nM

Structure (SMILES): COc1ncnc(OC)c1-n1c(NS(=O)(=O)[C@@H](C)[C@H](OC)c2ncc(C)cn2)nnc1[C@@H]1Cc2ccccc2O1 (single isomer, unassigned) [Example 232.0, (1R,2S)-N-(5-((S)-2,3-dihydrobenzofuran-2-yl)-4-(4,6-dimethoxypyrimidin-5-yl)-4H-1,2,4-triazol-3-yl)-1-methoxy-1-(5-methylpyrimidin-2-yl)propane-2-sulfonamide or (1R,2S)-N-(5-((R)-2,3-dihydrobenzofuran-2-yl)-4-(4,6-dimethoxypyrimidin-5-yl)-4H-1,2,4-triazol-3-yl)-1-methoxy-1-(5-methylpyrimidin-2-yl)propane-2-sulfonamide]
EC50: 220 nM

Structure (SMILES): C[C@H](c1ncc(Cl)cn1)[C@H](C)S(=O)(=O)Nc1nnc([C@@H]2COCCO2)n1C1CCOCC1 (single isomer, unassigned) [Example 245.0, (2S,3R)-3-(5-chloro-2-pyrimidinyl)-N-(5-((2R)-1,4-dioxan-2-yl)-4-(tetrahydro-2H-pyran-4-yl)-4H-1,2,4-triazol-3-yl)-2-butanesulfonamide or (2S,3R)-3-(5-chloro-2-pyrimidinyl)-N-(5-((2S)-1,4-dioxan-2-yl)-4-(tetrahydro-2H-pyran-4-yl)-4H-1,2,4-triazol-3-yl)-2-butanesulfonamide]
EC50: 620 nM

Structure (SMILES): C[C@H](c1ncc(Cl)cn1)[C@H](C)S(=O)(=O)Nc1nnc([C@@H]2COCCO2)n1C1CCOCC1 (single isomer, unassigned) [Example 246.0, (2S,3R)-3-(5-chloro-2-pyrimidinyl)-N-(5-((2R)-1,4-dioxan-2-yl)-4-(tetrahydro-2H-pyran-4-yl)-4H-1,2,4-triazol-3-yl)-2-butanesulfonamide or (2S,3R)-3-(5-chloro-2-pyrimidinyl)-N-(5-((2S)-1,4-dioxan-2-yl)-4-(tetrahydro-2H-pyran-4-yl)-4H-1,2,4-triazol-3-yl)-2-butanesulfonamide]
EC50: > 4200 nM

Structure (SMILES): CO[C@H](c1ncc(Cl)cn1)[C@H](C)S(=O)(=O)Nc1nnc([C@@H]2COCCO2)n1C1CCOCC1 (single isomer, unassigned) [Example 247.0, (1R,2S)-1-(5-chloro-2-pyrimidinyl)-N-(5-((2R)-1,4-dioxan-2-yl)-4-(tetrahydro-2H-pyran-4-yl)-4H-1,2,4-triazol-3-yl)-1-methoxy-2-propanesulfonamide or (1R,2S)-1-(5-chloro-2-pyrimidinyl)-N-(5-((2S)-1,4-dioxan-2-yl)-4-(tetrahydro-2H-pyran-4-yl)-4H-1,2,4-triazol-3-yl)-1-methoxy-2-propanesulfonamide]
EC50: 240 nM

Structure (SMILES): CO[C@H](c1ncc(Cl)cn1)[C@H](C)S(=O)(=O)Nc1nnc([C@@H]2COCCO2)n1C1CCOCC1 (single isomer, unassigned) [Example 248.0, (1R,2S)-1-(5-chloro-2-pyrimidinyl)-N-(5-((2R)-1,4-dioxan-2-yl)-4-(tetrahydro-2H-pyran-4-yl)-4H-1,2,4-triazol-3-yl)-1-methoxy-2-propanesulfonamide or (1R,2S)-1-(5-chloro-2-pyrimidinyl)-N-(5-((2S)-1,4-dioxan-2-yl)-4-(tetrahydro-2H-pyran-4-yl)-4H-1,2,4-triazol-3-yl)-1-methoxy-2-propanesulfonamide]
EC50: 0.58 nM

Structure (SMILES): COCC(COC)n1c(NS(=O)(=O)[C@@H](C)[C@H](OC)c2ncc(Cl)cn2)nnc1[C@@H]1COCCO1 (single isomer, unassigned) [Example 250.0, (1R,2S)-1-(5-chloro-2-pyrimidinyl)-N-(4-(1,3-dimethoxy-2-propanyl)-5-((2R)-1,4-dioxan-2-yl)-4H-1,2,4-triazol-3-yl)-1-methoxy-2-propanesulfonamide or (1R,2S)-1-(5-chloro-2-pyrimidinyl)-N-(4-(1,3-dimethoxy-2-propanyl)-5-((2S)-1,4-dioxan-2-yl)-4H-1,2,4-triazol-3-yl)-1-methoxy-2-propanesulfonamide]
EC50: 48 nM

Structure (SMILES): COCC(COC)n1c(NS(=O)(=O)[C@@H](C)[C@H](OC)c2ncc(Cl)cn2)nnc1[C@@H]1COCCO1 (single isomer, unassigned) [Example 251.0, (1R,2S)-1-(5-chloro-2-pyrimidinyl)-N-(4-(1,3-dimethoxy-2-propanyl)-5-((2R)-1,4-dioxan-2-yl)-4H-1,2,4-triazol-3-yl)-1-methoxy-2-propanesulfonamide or (1R,2S)-1-(5-chloro-2-pyrimidinyl)-N-(4-(1,3-dimethoxy-2-propanyl)-5-((2S)-1,4-dioxan-2-yl)-4H-1,2,4-triazol-3-yl)-1-methoxy-2-propanesulfonamide]
EC50: 750 nM

Structure (SMILES): COc1cccc(OC)c1-n1c(NS(=O)(=O)[C@H](C)[C@H](OC(C)C)c2cn3ccccc3n2)nnc1[C@H]1COCCO1 (single isomer, unassigned) [Example 266.0, (1R,2R)—N-(4-(2,6-dimethoxyphenyl)-5-((S)-1,4-dioxan-2-yl)-4H-1,2,4-triazol-3-yl)-1-(imidazo[1,2-a]pyridin-2-yl)-1-isopropoxypropane-2-sulfonamide or (1S,2S)—N-(4-(2,6-dimethoxyphenyl)-5-((S)-1,4-dioxan-2-yl)-4H-1,2,4-triazol-3-yl)-1-(imidazo[1,2-a]pyridin-2-yl)-1-isopropoxypropane-2-sulfonamide]
EC50: 150 nM

Structure (SMILES): COc1cccc(OC)c1-n1c(NS(=O)(=O)[C@@H](C)[C@H](C)c2ccc(Cl)cn2)nnc1[C@@H]1COCCO1 (single isomer, unassigned) [Example 267.0, (2S,3R)-3-(5-chloropyridin-2-yl)-N-(4-(2,6-dimethoxyphenyl)-5-((R)-1,4-dioxan-2-yl)-4H-1,2,4-triazol-3-yl)butane-2-sulfonamide or (2S,3R)-3-(5-chloropyridin-2-yl)-N-(4-(2,6-dimethoxyphenyl)-5-((S)-1,4-dioxan-2-yl)-4H-1,2,4-triazol-3-yl)butane-2-sulfonamide]
EC50: 2.1 nM

Structure (SMILES): COc1cccc(OC)c1-n1c(NS(=O)(=O)[C@@H](C)[C@H](C)c2ccc(Cl)cn2)nnc1[C@@H]1COCCO1 (single isomer, unassigned) [Example 268.0, (2S,3R)-3-(5-chloropyridin-2-yl)-N-(4-(2,6-dimethoxyphenyl)-5-((R)-1,4-dioxan-2-yl)-4H-1,2,4-triazol-3-yl)butane-2-sulfonamide or (2S,3R)-3-(5-chloropyridin-2-yl)-N-(4-(2,6-dimethoxyphenyl)-5-((S)-1,4-dioxan-2-yl)-4H-1,2,4-triazol-3-yl)butane-2-sulfonamide]
EC50: 1.9 nM

— US10150760B2, “Compounds for use in preparing heterocyclic triazole agonists of the APJ receptor” (AMGEN INC., priority 2016, dated 2018)
